Calls of active or inactive are those of the source. The rule behind the calls is not given here.
How the values were obtained:
[1] = tested on: A549; assay: Growth inhibition of human A549 cells; type: functional
[2] = tested on: MDA-MB-231; assay: Cytotoxicity against human MDA-MB-231 cells at < […] after 48 hrs by SRB assay; type: functional, cell-based
[3] = tested on: HT-29; assay: Cytotoxicity against human HT-29 cells at < […] after 48 hrs by SRB assay; type: functional, cell-based
[4] = tested on: A549; assay: Cytotoxicity against human A549 cells at < […] after 48 hrs by SRB assay; type: functional, cell-based
[5] = tested on: HT-29; assay: Cell cycle arrest in 0.2 ug/mL nocodazole pretreated human HT-29 cells assessed as accumulation at G2/M phase at 41 ug/mL after 72 hrs using propidium iodide staining by flow cytometry; type: functional
[6] = tested on: HT-29; assay: Cell cycle arrest in human HT-29 cells assessed as accumulation at G1 phase at 41 ug/mL after 24 hrs using propidium iodide staining by flow cytometry; type: functional
[7] = tested on: HT-29; assay: Induction of increase in histone gamma-H2A.X levels in human HT-29 cells at 41 ug/mL after 24 to 60 hrs by Western blotting; type: functional, cell-based
[8] = tested on: HT-29; assay: Induction Wee1 protein degradation in human HT-29 cells at 41 ug/mL after 24 to 60 hrs by Western blotting; type: functional, cell-based
[9] = tested on: HT-29; assay: Induction of DNA damage signaling pathways in human HT-29 cells assessed as Chk2 phosphorylation at 41 ug/mL after 24 hrs by Western blotting; type: functional, cell-based
[10] = tested on: HT-29; assay: Induction Wee1 protein degradation in 10 uM proteasome inhibitor MG132 pretreated human HT-29 cells at 41 ug/mL after 6 to 36 hrs by Western blotting; type: functional, cell-based
[11] = tested on: HT-29; assay: Reduction of phosphorylated cdc2 protein level in 0.2 ug/mL nocodazole pretreated human HT-29 cells at 41 ug/mL after 24 to 72 hrs by Western blotting; type: functional, cell-based
[12] = tested on: HT-29; assay: Induction of apoptosis in 0.2 ug/mL nocodazole pretreated human HT-29 cells at 41 ug/mL after 72 hrs using propidium iodide staining by flow cytometry; type: functional
[13] = tested on: HT-29; assay: Cell cycle arrest in human HT-29 cells assessed as accumulation at S phase at 41 ug/mL after 72 hrs using propidium iodide staining by flow cytometry; type: functional
[14] = tested on: HT-29; assay: Induction cdc2 protein degradation in human HT-29 cells at 41 ug/mL after 24 to 60 hrs by Western blotting; type: functional, cell-based
[15] = tested on: HT-29; assay: Cytotoxicity against human HT-29 cells assessed as reduction in cell viability at 41 ug/mL after 48 hrs by MTT assay; type: functional; details: HT-29, 48 h
[16] = tested on: HT-29; assay: Induction of DNA damage signaling pathways in human HT-29 cells assessed as p53 phosphorylation at 41 ug/mL after 24 hrs by Western blotting; type: functional, cell-based
[17] = tested on: HT-29; assay: Cell cycle arrest in 0.2 ug/mL nocodazole pretreated human HT-29 cells assessed as accumulation at G1 phase at 41 ug/mL after 72 hrs using propidium iodide staining by flow cytometry; type: functional
[18] = tested on: HT-29; assay: Cell cycle arrest in human HT-29 cells assessed as accumulation at S phase at 41 ug/mL after 24 hrs using propidium iodide staining by flow cytometry; type: functional
[19] = tested on: HT-29; assay: Induction cdc2 protein degradation in 300 uM protein synthesis inhibitor cycloheximide pretreated human HT-29 cells at 41 ug/mL after 6 to 36 hrs by Western blotting; type: functional, cell-based
[20] = tested on: HT-29; assay: Cell cycle arrest in human HT-29 cells assessed as accumulation at G1 phase at 41 ug/mL after 72 hrs using propidium iodide staining by flow cytometry; type: functional
[21] = tested on: HT-29; assay: Growth inhibition of human HT-29 cells; type: functional
[22] = tested on: HT-29; assay: Induction of apoptosis in human HT-29 cells at 41 ug/mL after 24 hrs using propidium iodide staining by flow cytometry; type: functional
[23] = tested on: HT-29; assay: Induction of apoptosis in human HT-29 cells at 41 ug/mL after 72 hrs using propidium iodide staining by flow cytometry; type: functional
[24] = tested on: HT-29; assay: Induction Wee1 protein degradation in 300 uM protein synthesis inhibitor cycloheximide pretreated human HT-29 cells at 41 ug/mL after 6 to 36 hrs by Western blotting; type: functional, cell-based
[25] = tested on: HT-29; assay: Induction cdc2 protein degradation in 10 uM proteasome inhibitor MG132 pretreated human HT-29 cells at 41 ug/mL after 6 to 36 hrs by Western blotting; type: functional, cell-based
[26] = tested on: HT-29; assay: Induction Cyclin B1 protein degradation in human HT-29 cells at 41 ug/mL after 24 to 60 hrs by Western blotting; type: functional, cell-based
[27] = tested on: HT-29; assay: Cell cycle arrest in human HT-29 cells assessed as accumulation at G2/M phase at 41 ug/mL after 72 hrs using propidium iodide staining by flow cytometry; type: functional
[28] = tested on: HT-29; assay: Induction of DNA damage signaling pathways in human HT-29 cells assessed as Chk1 phosphorylation at 41 ug/mL after 24 hrs by Western blotting; type: functional, cell-based
[29] = tested on: HT-29; assay: Cell cycle arrest in human HT-29 cells assessed as accumulation at G2/M phase at 41 ug/mL after 24 hrs using propidium iodide staining by flow cytometry; type: functional
[30] = tested on: HT-29; assay: Cell cycle arrest in 0.2 ug/mL nocodazole pretreated human HT-29 cells assessed as accumulation at S phase at 41 ug/mL after 72 hrs using propidium iodide staining by flow cytometry; type: functional

COc1c(C)c(OC)c(OC)c2c1C[C@H]1[C@@H](O)N(C(=O)OC(C)C)CC(=O)N1[C@H]2COCc1ccccc1
GI [1]: 5.68 ×10⁻⁶ M

COc1c(C)c(OC)c(OC)c2c1C[C@H]1CNCC(=O)N1[C@H]2CO (relative stereo)
inhibition [2]: inactive | inhibition [3]: inactive | inhibition [4]: inactive

COc1c(C)c(OC)c(OC)c2c1C[C@H]1CN(C(=O)OC(C)C)C[C@@H](C#N)N1[C@H]2COC(=O)c1cccc2ccccc12 (relative stereo)
inhibition [2]: inactive | inhibition [3]: inactive | inhibition [4]: inactive

COc1c(C)c(OC)c(OC)c2c1C[C@H]1CN(C(=O)OC(C)C)CC(=O)N1[C@H]2CO[Si](c1ccccc1)(c1ccccc1)C(C)(C)C (relative stereo)
inhibition [2]: inactive | inhibition [3]: inactive | inhibition [4]: inactive

COc1c(C)c(OC)c(OC)c2c1C[C@H]1CN(C)C[C@H]3OC[C@@H]2N13 (relative stereo)
inhibition [2]: inactive | inhibition [3]: inactive | inhibition [4]: inactive

COc1c(C)c(OC)c(OC)c2c1C[C@H]1CN(C(=O)OC(C)C)CC(=O)N1[C@H]2COCc1ccccc1
Activity [5]: 18.3% | Activity [6]: 61.4% | Activity [7]: inactive | Activity [8]: inactive | Activity [9]: inactive | Activity [10]: inactive | Activity [11]: Active | Activity [12]: 35.6% | Activity [13]: 12.8% | Activity [14]: inactive | inhibition at 41 µg/mL [15]: 80% | Activity [16]: inactive | Activity [17]: 31% | Activity [18]: 15.2% | Activity [19]: Active | Activity [20]: 45.9% | GI [21]: 1.95 ×10⁻⁷ M | inhibition [2]: Active | Activity [22]: 4.3% | inhibition [3]: Active | Activity [23]: 29.9% | inhibition [4]: Active | Activity [24]: Active | Activity [25]: Active | Activity [26]: inactive | Activity [27]: 10.4% | Activity [28]: inactive | Activity [29]: 16.4% | Activity [30]: 13.4%

COc1c(C)c(OC)c(OC)c2c1C[C@H]1CN(C(=O)OC(C)C)C[C@@H](C#N)N1[C@H]2CO (relative stereo)
inhibition [2]: inactive | inhibition [3]: inactive | inhibition [4]: inactive

COc1c(C)c(OC)c(OC)c2c1C[C@H]1CN(C(=O)OC(C)C)CC(=O)N1[C@H]2CO
inhibition [2]: inactive | inhibition [3]: inactive | inhibition [4]: inactive

COc1c(C)c(OC)c(OC)c2c1C[C@H]1CN(C(=O)OC(C)C)C[C@H]3OC[C@@H]2N13 (relative stereo)
inhibition [2]: inactive | inhibition [3]: inactive | inhibition [4]: inactive

COc1c(C)c(OC)c(OC)c2c1C[C@H]1CN(C)CC(=O)N1[C@H]2CO (relative stereo)
inhibition [2]: inactive | inhibition [3]: inactive | inhibition [4]: inactive

COc1c(C)c(OC)c(OC)c2c1C[C@H]1CN(C(=O)OC(C)C)C[C@@H](C#N)N1[C@H]2COC(=O)/C=C/c1ccccc1 (relative stereo)
inhibition [2]: inactive | inhibition [3]: inactive | inhibition [4]: inactive

Reference: ChEMBL document CHEMBL1153080, “Cytotoxicity mechanisms of pyrazino[1,2-b]isoquinoline-4-ones and SAR studies” (2009)
